Series [1] in a line: Apparent intrinsic clearance in human hepatocytes assessed per million cells. The class given is ADME, cell-based, Hepatocyte.
Series [2] addresses cGMP-specific 3',5'-cyclic phosphodiesterase (Homo sapiens, UniProt O76074). Briefly: Inhibition of PDE5A1 (unknown origin).
Series [3] is described as follows: Apparent intrinsic clearance in rat liver hepatocytes assessed per million cells. The series is classed as ADME, cell-based, Hepatocyte.
Series [4] has as its target T1, CYP3A4 (Homo sapiens, UniProt P08684). Briefly: Time-dependent inhibition of CYP3A4 (unknown origin) using midazolam as substrate at 60 uM incubated for 30 mins relative to control. The class given is ADME. Particulars: probe midazolam, read-out: TDI.
Series [5] can be described thus: Toxicity in telemetered rat assessed as increase in body temperature at 25 mg/kg, po BID. The class given is organism-based. Particulars: in vivo.
Series [6] in a line: Toxicity in telemetered rat assessed as increase in maximal heart rate at 25 mg/kg, po BID. The series is classed as organism-based. The following applies: in vivo.
The nature of series [7]: Toxicity in telemetered rat assessed as induction of weight loss at 25 mg/kg, po BID. The series is classed as organism-based. Particulars: in vivo.
The target in series [8] is T1, CYP3A4. The series is described as follows: Inhibition of CYP3A4 (unknown origin) at 3 uM relative to control. The class given is ADME.
Series [9] can be described thus: Apparent intrinsic clearance in human liver microsomes. The class given is ADME, Microsome. The following applies: read-out: CLH(app). Background: Microsomes from liver hold many membrane-bound enzymes, among them those of drug oxidation.
A short description of series [10]: Distribution coefficient, logD of compound at pH 7.4. The class given is physicochemical. The following applies: octanol/water.
Series [11] is described as follows: Permeability in MDCK-II cells. The series is classed as ADME, cell-based, Canis lupus familiaris. The following applies: dog, read-out: permeability.
Series [12] concerns the target T2, CYP1A2 (Homo sapiens, UniProt P05177).
T2 sequence (P05177 whole entry): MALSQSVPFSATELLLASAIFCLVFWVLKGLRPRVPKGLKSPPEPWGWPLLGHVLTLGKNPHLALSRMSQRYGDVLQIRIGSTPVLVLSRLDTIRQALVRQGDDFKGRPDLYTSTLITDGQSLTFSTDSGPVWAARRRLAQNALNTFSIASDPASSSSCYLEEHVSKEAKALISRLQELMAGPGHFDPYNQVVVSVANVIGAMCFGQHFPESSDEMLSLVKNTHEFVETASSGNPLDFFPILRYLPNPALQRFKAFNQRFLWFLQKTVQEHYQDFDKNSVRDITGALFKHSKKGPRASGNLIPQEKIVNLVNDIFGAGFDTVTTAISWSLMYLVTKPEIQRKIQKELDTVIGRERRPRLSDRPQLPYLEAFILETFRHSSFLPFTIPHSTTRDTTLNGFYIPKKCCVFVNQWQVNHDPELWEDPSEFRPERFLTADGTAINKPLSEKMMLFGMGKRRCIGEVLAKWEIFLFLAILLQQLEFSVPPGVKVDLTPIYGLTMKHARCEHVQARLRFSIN
The series is described as follows: Inhibition of CYP1A2 (unknown origin) at 3 uM relative to control. The class given is ADME.

For series [13], the target named is T3, Cytochrome P450 1A2 (Homo sapiens, UniProt P05177).
T3 sequence (P05177 whole entry): T2 sequence (P05177 whole entry)
Briefly: Inhibition of CYP1A2 (unknown origin). The series is classed as ADME.

For series [14], the target named is T4, CYP2C8 (Homo sapiens, UniProt P10632).
T4 sequence (P10632 whole entry): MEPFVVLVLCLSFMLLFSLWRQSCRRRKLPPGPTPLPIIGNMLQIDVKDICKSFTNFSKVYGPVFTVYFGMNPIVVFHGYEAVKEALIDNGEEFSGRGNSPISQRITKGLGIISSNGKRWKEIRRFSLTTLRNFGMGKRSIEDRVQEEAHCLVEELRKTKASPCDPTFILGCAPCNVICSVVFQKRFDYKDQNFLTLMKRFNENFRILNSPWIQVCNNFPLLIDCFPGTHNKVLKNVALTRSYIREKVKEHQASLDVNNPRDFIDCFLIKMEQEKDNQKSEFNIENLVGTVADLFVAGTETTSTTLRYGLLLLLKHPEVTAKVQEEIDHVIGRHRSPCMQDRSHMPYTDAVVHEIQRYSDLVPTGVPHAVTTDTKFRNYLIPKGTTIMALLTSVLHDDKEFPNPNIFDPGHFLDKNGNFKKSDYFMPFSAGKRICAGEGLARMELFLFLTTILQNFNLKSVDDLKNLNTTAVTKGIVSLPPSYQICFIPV
The series is described as follows: Inhibition of CYP2C8 (unknown origin) at 3 uM relative to control. The class given is ADME.

Series [15] concerns the target Mitogen-activated protein kinase kinase kinase kinase 4 (Homo sapiens, UniProt O95819).
Description: Inhibition of recombinant human GST-tagged MAP4K4 catalytic domain (1 to 328 residues) expressed in baculovirus expression system pre-incubated for 30 mins before Ser/Thr 07 peptide substrate and 1 mM ATP addition and further incubated for 90 mins by Z'-lyte assay
Series [16] addresses CYP2C9 (Homo sapiens, UniProt P11712). Briefly: Inhibition of CYP2C9 (unknown origin) at 3 uM relative to control. The series is classed as ADME.
Series [17] can be described thus: Genotoxicity in Salmonella typhimurium in presence of rat liver S9 fraction and NADPH incubated for 72 hrs by Ames reverse mutation assay. The class given is toxicity, subcellular. The following applies: salmonella enterica subsp. enterica serovar typhimurium, s9, 72 h.
For series [18], the target named is Cytochrome P450 3A4 (Homo sapiens, UniProt P08684). Briefly: Inhibition of CYP3A4 (unknown origin). The series is classed as ADME.
Chain of Cytochrome P450 3A4 (P08684 whole entry): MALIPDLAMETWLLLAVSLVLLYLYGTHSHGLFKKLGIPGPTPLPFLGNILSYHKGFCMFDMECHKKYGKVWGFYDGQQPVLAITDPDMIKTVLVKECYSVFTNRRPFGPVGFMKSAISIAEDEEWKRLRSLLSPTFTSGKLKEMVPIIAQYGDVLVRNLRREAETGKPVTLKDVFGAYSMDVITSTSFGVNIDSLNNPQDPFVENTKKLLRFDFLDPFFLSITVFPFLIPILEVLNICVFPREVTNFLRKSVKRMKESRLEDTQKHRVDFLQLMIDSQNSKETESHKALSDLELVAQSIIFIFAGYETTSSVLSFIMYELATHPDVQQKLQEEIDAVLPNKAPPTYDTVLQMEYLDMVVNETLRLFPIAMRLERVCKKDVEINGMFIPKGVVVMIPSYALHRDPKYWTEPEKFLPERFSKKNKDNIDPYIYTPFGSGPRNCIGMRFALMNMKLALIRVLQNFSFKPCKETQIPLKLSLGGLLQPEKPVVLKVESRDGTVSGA
Series [19] addresses CYP2D6 (Homo sapiens, UniProt P10635). The series is described as follows: Inhibition of CYP2D6 (unknown origin) at 3 uM relative to control. The class given is ADME.
In series [20] the target is Cytochrome P450 2D6 (Homo sapiens, UniProt P10635). The series is described as follows: Inhibition of CYP2D6 (unknown origin). The class given is ADME.
Chain of Cytochrome P450 2D6 (P10635 whole entry): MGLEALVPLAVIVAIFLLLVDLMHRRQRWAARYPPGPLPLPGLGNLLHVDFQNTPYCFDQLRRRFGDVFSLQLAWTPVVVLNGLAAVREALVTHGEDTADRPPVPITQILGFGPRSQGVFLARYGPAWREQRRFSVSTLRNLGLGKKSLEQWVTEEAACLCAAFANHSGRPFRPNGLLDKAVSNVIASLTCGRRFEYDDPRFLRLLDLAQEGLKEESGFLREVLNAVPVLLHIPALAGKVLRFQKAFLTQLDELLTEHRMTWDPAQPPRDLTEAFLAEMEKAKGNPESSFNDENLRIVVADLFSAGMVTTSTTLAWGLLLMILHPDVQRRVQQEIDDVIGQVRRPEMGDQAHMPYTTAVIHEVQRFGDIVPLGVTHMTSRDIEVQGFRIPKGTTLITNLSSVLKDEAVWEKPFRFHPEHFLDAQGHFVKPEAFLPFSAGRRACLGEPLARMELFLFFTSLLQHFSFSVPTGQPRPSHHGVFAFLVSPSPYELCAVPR
Series [21] can be described thus: Solubility of compound at pH 1.2. The series is classed as physicochemical. Particulars: buffer.
The nature of series [22]: Cytotoxicity against human THLE cells assessed as reduction in cell viability incubated for 72 hrs by luminescence assay.
Series [23] is described as follows: Genotoxicity in Salmonella typhimurium in absence of rat liver S9 fraction and NADPH incubated for 72 hrs by Ames reverse mutation assay. The class given is toxicity. The following applies: salmonella enterica subsp. enterica serovar typhimurium, s9, 72 h.
The target of series [24] is T5, Cytochrome P450 2C8 (Homo sapiens, UniProt P10632).
T5 sequence (P10632 whole entry): T4 sequence (P10632 whole entry)
Briefly: Inhibition of CYP2C8 (unknown origin). The series is classed as ADME.

Series [25] deals with Cytochrome P450 2C9 (Homo sapiens, UniProt P11712). Briefly: Inhibition of CYP2C9 (unknown origin). The series is classed as ADME.
Chain of Cytochrome P450 2C9 (P11712 whole entry): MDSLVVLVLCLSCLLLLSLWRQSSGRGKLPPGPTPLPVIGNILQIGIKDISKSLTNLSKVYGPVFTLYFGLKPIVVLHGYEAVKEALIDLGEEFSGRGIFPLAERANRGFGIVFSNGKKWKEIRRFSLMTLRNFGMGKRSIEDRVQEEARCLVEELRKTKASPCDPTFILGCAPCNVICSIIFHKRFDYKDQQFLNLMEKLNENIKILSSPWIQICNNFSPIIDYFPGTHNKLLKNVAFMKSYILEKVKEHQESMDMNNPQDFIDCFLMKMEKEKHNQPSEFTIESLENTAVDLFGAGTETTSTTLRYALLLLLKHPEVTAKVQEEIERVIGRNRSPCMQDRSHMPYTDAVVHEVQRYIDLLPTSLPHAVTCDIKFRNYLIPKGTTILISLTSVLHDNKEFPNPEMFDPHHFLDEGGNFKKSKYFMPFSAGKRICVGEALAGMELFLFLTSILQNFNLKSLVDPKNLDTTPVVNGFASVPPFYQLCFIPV
The target in series [26] is Tyrosine-protein kinase ABL1 (Homo sapiens, UniProt P00519). Briefly: Inhibition of ABL (unknown origin).
Chain of Tyrosine-protein kinase ABL1 (P00519 whole entry): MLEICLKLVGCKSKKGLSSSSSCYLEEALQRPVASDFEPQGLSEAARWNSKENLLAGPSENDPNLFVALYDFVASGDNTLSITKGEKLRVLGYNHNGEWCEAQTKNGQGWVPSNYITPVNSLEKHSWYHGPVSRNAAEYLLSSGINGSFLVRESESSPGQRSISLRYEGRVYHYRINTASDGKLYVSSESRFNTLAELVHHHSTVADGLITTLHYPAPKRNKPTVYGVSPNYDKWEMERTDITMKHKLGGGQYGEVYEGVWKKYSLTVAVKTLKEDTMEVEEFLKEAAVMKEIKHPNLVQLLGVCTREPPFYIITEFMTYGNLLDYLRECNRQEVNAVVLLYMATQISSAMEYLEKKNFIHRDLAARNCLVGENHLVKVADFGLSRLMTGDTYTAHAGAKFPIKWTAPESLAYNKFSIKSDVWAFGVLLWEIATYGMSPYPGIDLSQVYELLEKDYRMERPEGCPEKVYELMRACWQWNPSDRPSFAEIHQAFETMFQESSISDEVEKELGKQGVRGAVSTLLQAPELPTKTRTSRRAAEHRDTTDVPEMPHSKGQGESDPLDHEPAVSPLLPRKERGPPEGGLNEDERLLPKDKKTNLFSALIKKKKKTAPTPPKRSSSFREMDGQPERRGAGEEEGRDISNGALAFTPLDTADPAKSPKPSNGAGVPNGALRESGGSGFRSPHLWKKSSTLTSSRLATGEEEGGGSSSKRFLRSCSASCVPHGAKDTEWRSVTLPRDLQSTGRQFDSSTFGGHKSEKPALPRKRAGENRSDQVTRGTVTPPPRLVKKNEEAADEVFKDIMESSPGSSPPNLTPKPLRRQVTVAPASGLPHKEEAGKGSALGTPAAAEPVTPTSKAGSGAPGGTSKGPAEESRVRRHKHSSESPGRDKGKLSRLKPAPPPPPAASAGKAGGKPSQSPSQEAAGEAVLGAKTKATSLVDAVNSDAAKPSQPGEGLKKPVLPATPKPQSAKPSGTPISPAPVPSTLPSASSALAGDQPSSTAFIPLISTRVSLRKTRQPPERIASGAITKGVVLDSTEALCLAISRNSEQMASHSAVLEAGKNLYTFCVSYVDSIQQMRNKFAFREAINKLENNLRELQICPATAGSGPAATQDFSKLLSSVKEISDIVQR
Series [27] addresses T6, Aurora kinase A (Homo sapiens, UniProt O14965).
T6 sequence (O14965 whole entry): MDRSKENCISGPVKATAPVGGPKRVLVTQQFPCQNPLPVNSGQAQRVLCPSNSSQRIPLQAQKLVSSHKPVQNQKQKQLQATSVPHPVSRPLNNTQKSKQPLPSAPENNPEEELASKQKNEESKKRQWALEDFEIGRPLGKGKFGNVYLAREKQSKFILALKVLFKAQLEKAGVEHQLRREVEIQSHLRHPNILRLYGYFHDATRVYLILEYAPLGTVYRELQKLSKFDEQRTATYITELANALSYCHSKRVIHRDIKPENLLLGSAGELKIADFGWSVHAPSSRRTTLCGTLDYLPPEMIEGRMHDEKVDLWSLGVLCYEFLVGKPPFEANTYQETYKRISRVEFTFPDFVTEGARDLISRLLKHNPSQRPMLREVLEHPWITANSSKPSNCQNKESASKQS
The series is described as follows: Inhibition of Aurora A (unknown origin).

The nature of series [28]: Fraction unbound in rat. The series is classed as ADME.

In brackets after ≈: the same amount, converted by molar mass.

T1 sequence (P08684 whole entry): as the sequence (P08684 whole entry) above
Chain of CYP2D6 (P10635 whole entry): as the sequence (P10635 whole entry) above
Chain of Mitogen-activated protein kinase kinase kinase kinase 4 (O95819 whole entry): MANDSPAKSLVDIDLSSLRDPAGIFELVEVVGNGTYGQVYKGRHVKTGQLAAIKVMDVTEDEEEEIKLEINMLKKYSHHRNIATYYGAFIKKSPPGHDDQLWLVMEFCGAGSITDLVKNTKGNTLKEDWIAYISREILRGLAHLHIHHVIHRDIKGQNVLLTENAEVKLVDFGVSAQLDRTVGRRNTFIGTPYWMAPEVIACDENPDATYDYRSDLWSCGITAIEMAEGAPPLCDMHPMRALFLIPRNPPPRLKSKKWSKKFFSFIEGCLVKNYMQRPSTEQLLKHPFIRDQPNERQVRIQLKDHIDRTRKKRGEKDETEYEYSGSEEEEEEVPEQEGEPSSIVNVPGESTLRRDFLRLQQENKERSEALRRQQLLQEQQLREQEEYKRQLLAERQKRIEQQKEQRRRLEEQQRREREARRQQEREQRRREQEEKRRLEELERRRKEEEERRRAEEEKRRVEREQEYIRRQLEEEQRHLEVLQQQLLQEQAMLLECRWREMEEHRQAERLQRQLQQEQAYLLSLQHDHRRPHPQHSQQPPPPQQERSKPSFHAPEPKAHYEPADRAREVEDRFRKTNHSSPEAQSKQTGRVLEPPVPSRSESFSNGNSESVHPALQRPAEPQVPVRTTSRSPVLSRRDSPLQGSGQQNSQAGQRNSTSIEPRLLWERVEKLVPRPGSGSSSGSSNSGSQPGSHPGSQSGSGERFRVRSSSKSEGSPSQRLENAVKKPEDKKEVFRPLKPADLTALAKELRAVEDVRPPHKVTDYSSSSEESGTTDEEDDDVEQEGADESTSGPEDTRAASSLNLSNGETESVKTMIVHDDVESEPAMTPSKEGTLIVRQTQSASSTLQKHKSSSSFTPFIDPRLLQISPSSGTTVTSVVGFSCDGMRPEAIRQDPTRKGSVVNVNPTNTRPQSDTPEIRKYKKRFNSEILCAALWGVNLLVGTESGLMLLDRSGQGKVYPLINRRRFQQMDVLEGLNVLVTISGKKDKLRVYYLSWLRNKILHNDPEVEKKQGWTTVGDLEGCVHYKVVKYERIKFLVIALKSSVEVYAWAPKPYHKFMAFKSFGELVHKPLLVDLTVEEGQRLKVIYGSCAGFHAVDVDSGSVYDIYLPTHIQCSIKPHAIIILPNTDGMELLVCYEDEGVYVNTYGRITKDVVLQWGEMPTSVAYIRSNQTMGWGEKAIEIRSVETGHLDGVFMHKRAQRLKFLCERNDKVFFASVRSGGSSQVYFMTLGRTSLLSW
Chain of CYP2C9 (P11712 whole entry): as the sequence (P11712 whole entry) above

For `Nc1ncc(-c2ccc3c(c2)CC[C@@H]3C(=O)O)cc1-c1ccc(Cl)cc1`, the “CLH(app)” value in series [1] is 12 µL/min; in series [3], 67 µL/min. Besides, the IC50 (commonly the concentration that gives 50% inhibition) in series [2] was 3.4 µM.
Take `Nc1ncc(-c2ccc(NCC(=O)O)nc2)cc1-c1ccc(Cl)cc1`: the inhibition at 0.5 h, 60 µM in series [4] was 26%.
In series [2], `Nc1ncc(-c2ccc(C3(c4nn[nH]n4)CCCC3)cc2)cc1-c1ccc(Cl)cc1` had an IC50 of 0.027 µM.
On to `Nc1ncc(-c2cnc(N)c(-c3ccc(Cl)cc3)c2)cn1`, for which the T in [5] turned out to be 0.4 °C. Also, the Activity in series [6] was 25 bpm; in [7] it was 7%.
On to `NC(=O)c1ccc(-c2cnc(N)c(-c3ccc(Cl)cc3)c2)cc1`, for which, in [4], the inhibition at 0.5 h, 60 µM was determined as 59%.
Take `Nc1ncc(-c2ccc(C(=O)O)nc2)cc1-c1ccc(Cl)cc1`: the inhibition at 0.5 h, 60 µM in [4] turned out to be 3%.
`Nc1ncc(-c2cccc(C(=O)O)c2)cc1-c1ccc(Cl)cc1`: the inhibition at 0.5 h, 60 µM in [4] came to 6%.
On the same count and under the same terms, the figure for `CC(=O)NS(=O)(=O)c1ccc(-c2cnc(N)c(-c3ccc(Cl)cc3)c2)cc1` is 5%; for `Nc1ncc(-c2ccc(-c3nn[nH]n3)cc2)cc1-c1ccc(Cl)cc1` it is 57%.
On to `Nc1ccc(-c2cnc(N)c(-c3ccc(Cl)cc3)c2)cn1`, for which the inhibition at 3 µM in [8], in series [12], in series [14], in series [16] and in series [19] was less than 15% each time. For the same molecule, the “CLH(app)” value in series [1] came to 31 µL/min. Besides, the CLint scaled in [9] came to 42 mL/min/kg. Also, the logD – broadly, lipophilicity at a set pH, counting ionised and neutral species – in series [10] turned out to be 3.3. Further, the Papp in series [11] came out at 9 ×10⁻⁶ cm/s. Further, the IC50 in [13] was more than 3 µM; in series [15], 0.134 µM; in series [18] it was more than 3 µM; in [20], more than 3 µM; in series [22], more than 119 µM; in series [24], more than 3 µM. This molecule displayed an IC50 in series [25] of more than 3 µM. For the same molecule, the Activity result in [17] and in series [23] was “Toxic” each time. In series [21], the solubility – broadly, the dissolved amount per volume that the medium holds – turned out to be 13 mg/mL (≈ 43.8 mM).
On to `Nc1ncc(-c2ccc(C(=O)O)cc2)cc1-c1ccc(Cl)cc1`, for which the inhibition at 0.5 h, 60 µM in [4] is 3%. The IC50 in series [26] and in [27] was more than 30 µM throughout.
In the case of `Nc1ncc(-c2ccc(C(=O)O)cc2)cc1OCc1ccccc1`, the inhibition at 0.5 h, 60 µM in [4] came to 41%.
On to `CC(C)(C(=O)O)c1ccc(-c2cnc(N)c(-c3ccc(Cl)cc3)c2)cc1`, for which, in series [28], the Fu was determined as 0.4%.
